Assay results as given in ChEMBL document CHEMBL2439957, “Design and synthesis of novel pyrimidone analogues as HIV-1 integrase inhibitors” (Bioorg Med Chem Lett, 2013).

Columns and labels:
[1] = target: T1, Human immunodeficiency virus type 1 integrase (Human immunodeficiency virus 1, UniProt Q7ZJM1); experiment: Inhibition of Human immunodeficiency virus 1 integrase 3'-processing activity after 30 mins by polyacrylamide gel electrophoresis
[2] = target: T1, Human immunodeficiency virus type 1 integrase; experiment: Inhibition of Human immunodeficiency virus 1 integrase strand transfer activity after 30 mins by polyacrylamide gel electrophoresis

T1 sequence (Q7ZJM1 whole entry): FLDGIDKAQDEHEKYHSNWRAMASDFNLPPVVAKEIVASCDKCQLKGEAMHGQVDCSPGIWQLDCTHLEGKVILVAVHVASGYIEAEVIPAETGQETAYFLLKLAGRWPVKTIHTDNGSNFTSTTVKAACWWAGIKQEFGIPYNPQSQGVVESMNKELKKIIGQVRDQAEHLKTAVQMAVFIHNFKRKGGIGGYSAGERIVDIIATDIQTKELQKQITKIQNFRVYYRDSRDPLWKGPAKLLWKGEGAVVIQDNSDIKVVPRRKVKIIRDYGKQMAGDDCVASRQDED

Compound	IC50 [1] [µM]	IC50 [2] [µM]
CC(=O)NCCCn1c(C(C)(C)C)nc(C(=O)NCc2ccc(F)cc2)c(O)c1=O	> 20	2
CCC(=O)NCCCn1c(C(C)(C)C)nc(C(=O)NCc2ccc(F)cc2)c(O)c1=O [listing 1 of 2 here]	–	6
CCCC(=O)NCCCn1c(C(C)(C)C)nc(C(=O)NCc2ccc(F)cc2)c(O)c1=O	> 20	20
CC(C)(C)c1nc(C(=O)NCc2ccc(F)cc2)c(O)c(=O)n1CCCNC(=O)c1cccs1	> 20	14
CC(C)(C)c1nc(C(=O)NCc2ccc(F)cc2)c(O)c(=O)n1CCCNC(=O)c1ccco1	> 20	3
CC(C)(C)C(=O)NCCCn1c(C(C)(C)C)nc(C(=O)NCc2ccc(F)cc2)c(O)c1=O	> 20	20
CC(=O)Nc1ccc(S(=O)(=O)NCCCn2c(C(C)(C)C)nc(C(=O)NCc3ccc(F)cc3)c(O)c2=O)cc1	> 20	8
CCC(=O)NCCCn1c(C(C)(C)C)nc(C(=O)NCc2ccc(F)cc2)c(O)c1=O [listing 2 of 2 here]	> 20	4
CC(C)(C)c1nc(O)c(O)c(C(=O)NCc2ccc(F)cc2)n1	> 20	2

Further lines, results first:

IC50 [1] [µM]	IC50 [2] [µM]	Compound
> 20	> 20	CC(C)(C)OC(=O)NCCCn1c(C(C)(C)C)nc(C(=O)NCc2ccc(F)cc2)c(O)c1=O
> 20	> 20	CC(C)(C)c1nc(C(=O)NCc2ccc(F)cc2)c(O)c(=O)n1CCCN
–	3	CC(C)(C)c1nc(C(=O)NCc2ccc(F)cc2)c(O)c(=O)n1CCCNC(=O)C1CC1 [listing 1 of 2 here]
> 20	13	CC(C)(C)c1nc(C(=O)NCc2ccc(F)cc2)c(O)c(=O)n1CCCNC(=O)c1ccccc1
–	20	CC(C)(C)c1nc(C(=O)NCc2ccc(F)cc2)c(O)c(=O)n1CCCNS(=O)(=O)C1CC1 [listing 1 of 2 here]
> 20	7	CCS(=O)(=O)NCCCn1c(C(C)(C)C)nc(C(=O)NCc2ccc(F)cc2)c(O)c1=O
> 20	20	CC(C)(C)c1nc(C(=O)NCc2ccc(F)cc2)c(O)c(=O)n1CCCNC(=O)Cc1cccs1
> 20	12	Cn1cnc(S(=O)(=O)NCCCn2c(C(C)(C)C)nc(C(=O)NCc3ccc(F)cc3)c(O)c2=O)c1
> 20	5	CC(C)(C)c1nc(C(=O)NCc2ccc(F)cc2)c(O)c(=O)n1CCCNC(=O)C1CC1 [listing 2 of 2 here]
> 20	20	CC(C)(C)c1nc(C(=O)NCc2ccc(F)cc2)c(O)c(=O)n1CCCNS(=O)(=O)c1ccccc1
> 20	9	CC(C)(C)c1nc(C(=O)NCc2ccc(F)cc2)c(O)c(=O)n1CCCNS(=O)(=O)C1CC1 [listing 2 of 2 here]
